According to patent US20240317764A1, “SALTS AND SOLID FORMS OF A COMPOUND HAVING APJ RECEPTOR ACTIVITY” (Annapurna Bio, Inc., priority 2022, published 2024):
≈ marks a conversion by molar mass, not a printed value. Entries after “also recorded” stand apart in the source; their conditions may differ. Counter-ions that a name gives are not always drawn.

How the values were obtained:
[1] = Hygroscopicity by DVS at 25° C. between 0% RH and 95% RH, XRPD after DVS; assay type: physicochemical; settings: for Water uptake (25° C./80% RH): DVS; for Form change after DVS: XRPD after DVS test; for Water uptake, comparison between forms (in words): DVS at 25° C., 0% RH to 95% RH
Description: DVS was measured via a SMS (Surface Measurement Systems) DVS Intrinsic. The relative humidity at 25° C. were calibrated against deliquescence point of LiCl, Mg(NO3)2 and KCl.
In order to evaluate the hygroscopicity of Compound I free acid Form A and re-prepared salt forms, DVS isotherm plots were collected at 25° C. between 0% RH and 95% RH. XRPD characterization was performed for the samples after DVS test.

[2] = pH buffers
Description: (§1) The re-prepared choline salt Form A was used for evaluation, including solubility and solid stability. Free acid Form A was selected as comparison for pH solubility and solid stability evaluation.

[3] = Solid stability, 54 and 91 days (XRPD and HPLC purity); assay type: physicochemical; settings: 25° C./60% RH or 40° C./75% RH
Description: as §1

physchem = settings: thermodynamic from solid
Description: The solubility of starting material (Compound I choline salt Form A) was estimated at room temperature (RT, ˜26° C.). Specifically, approximate 2 mg solid was added into HPLC glass vials. Solvents in Table 5-2 were then added stepwise (50/50/200/700 μL) into the vials until the solids were dissolved or a total volume of 1.0 mL was reached.

[4] = Dog pharmacokinetic study after oral administration, plasma by LC-MS/MS; assay type: in vivo, male Beagle dogs; settings: for Cmax / AUC(0-t) / Tmax: male, Beagle, 30 mg/kg; for Cmax / AUC(0-t): mean; for Cmax: plasma Compound I; for AUC(0-t): t = 24 h; for Tmax: median value or range
Description: The objective of this study was to characterize the pharmacokinetics (PK) of Compound I in male Beagle dogs after oral (P0) administration. The P0 formulation was prepared in capsule or prepared in 0.50% or […] (methyl cellulose) in water at a concentration of 6 mg/mL for oral administration at 30 mg/kg.
LC-MS/MS for the PK studies was carried out using the following instruments/conditions.
Compound I Free acid Form A and Compound I choline salt Form A were formulated as an oral suspension at a target dose concentration of 6 mg/mL in 0.500 or 1% MC in water.
The dose was administered orally by gavage at a target dose volume of 5 mL/kg. Compound I choline salt Form A was also formulated as an oral capsule at a target dose concentration of 30 mg/kg. The formulation was prepared on the day of dosing and stored at room temperature prior to administration. The dose was administered orally by gavage to dogs. Following oral administration, blood samples were collected from […] at pre-dose, 0.083, 0.25, 0.5, 1, 2, 4, 8 and 24 h post dose.
The plasma concentration of Compound I was determined by liquid chromatography with mass spectrometric detection (LC-MS/MS).

[5] = Approximate solubility of Compound I free acid Form A in 14 solvents at RT; assay type: physicochemical
Description: Approximate solubility of starting material (Compound I free acid Form A) was determined in 14 solvents at RT. Approximately 2 mg of sample was added into a 3-mL glass vial. Solvents in Table 1-3 were then added stepwise into the vials until the solids were dissolved visually or a total volume of 2 mL was reached. Solubility results summarized in Table 1-1 were used to guide the solvent selection in screening experiment design.

[6] = compared to Compound I choline salt Form A

CCOc1cccc(-c2nc3ncc([N-]S(C)(=O)=O)nc3n2-c2c(OC)cccc2OC)n1.[Na+] [Compound I sodium salt Form A, N-(1-(2,6-dimethoxyphenyl)-2-(6-ethoxypyridin-2-yl)-1H-imidazo[4,5-b]pyrazin-6-yl)methanesulfonamide sodium salt Form A]
Water uptake (25° C./80% RH) [1]: 1.13% | Form change after DVS ([1]; listed as Compound I Na salt Form A): converted to a new form after DVS test; also recorded: form change was observed after DVS | Form change after DVS ([1]; listed as Na salt Form A): Yes* | Hygroscopicity (in words) [1, 6]: exhibited hygroscopicity | Stability after exposure to high humidity (in words) [1, 6]: less stable after exposed to high humidity

CCOc1cccc(-c2nc3ncc(NS(C)(=O)=O)nc3n2-c2c(OC)cccc2OC)n1 [Compound I choline salt Form A, N-(1-(2,6-dimethoxyphenyl)-2-(6-ethoxypyridin-2-yl)-1H-imidazo[4,5-b]pyrazin-6-yl)methanesulfonamide choline salt Form A]
Solubility in certain non-polar solvents (in words) (IPA, acetone, MEK, MIBK, ethyl acetate, isopropyl acetate, MTBE, THF, 2-MeTHF, CHCl3, n-heptane, toluene, DCM, 1,4-dioxane): less soluble | Solubility in polar solvents (in words) (methanol, DMSO, and water): good solubility | pH solubility compared with free acid Form A [2]: higher solubility than free acid Form A | Solid stability: form change (XRPD) and HPLC purity [3]: no form change or obvious HPLC purity decrease; also recorded: physically/chemically stable | Solid stability: form change (XRPD) and HPLC purity ([3]; listed as choline salt Form A): no form change or obvious HPLC purity decrease; also recorded: physically/chemically stable | solubility (physchem; 1,4-Dioxane, 26 °C, organic solvent or mixture): < 2100 µg/mL | solubility (physchem; 2-Butanol, 26 °C, organic solvent or mixture): < 1800 µg/mL | solubility (physchem; 2-MeTHF, 26 °C, organic solvent or mixture): < 1800 µg/mL | solubility (physchem; ACN, 26 °C, organic solvent or mixture): 7100 to 21400 µg/mL | solubility (physchem; ACN/IPAc (1:1), 26 °C, organic solvent or mixture): < 2100 µg/mL | solubility (physchem; ACN/IPAc (9:1), 26 °C, organic solvent or mixture): 2200 to 7300 µg/mL | solubility (physchem; ACN/Toluene (1:1), 26 °C, organic solvent or mixture): 2100 to 7000 µg/mL | solubility (physchem; ACN/Toluene (9:1), 26 °C, organic solvent or mixture): 6300 to 18800 µg/mL | solubility (physchem; Acetone/H2O (19:1), 26 °C, organic solvent or mixture): 7200 to 21600 µg/mL | solubility (physchem; CHCl3, 26 °C, organic solvent or mixture): < 2100 µg/mL | solubility (physchem; CPME, 26 °C, organic solvent or mixture): < 1800 µg/mL | solubility (physchem; DCM, 26 °C, organic solvent or mixture): < 2100 µg/mL | solubility (physchem; DMF, 26 °C, organic solvent or mixture): 20200 to 40400 µg/mL | solubility (physchem; DMSO, 26 °C, organic solvent or mixture): 18800 to 37600 µg/mL | solubility (physchem; EtOAc, 26 °C, organic solvent or mixture): < 1700 µg/mL | solubility (physchem; EtOH, 26 °C, organic solvent or mixture): 6800 to 20500 µg/mL | solubility (physchem; EtOH/H2O (19:1), 26 °C, organic solvent or mixture): 6600 to 19900 µg/mL | solubility (physchem; IPA/ACN (1:1), 26 °C, organic solvent or mixture): 7000 to 21000 µg/mL | solubility (physchem; IPAc, 26 °C, organic solvent or mixture): < 2000 µg/mL | solubility (physchem; MEK, 26 °C, organic solvent or mixture): < 2000 µg/mL | solubility (physchem; MIBK, 26 °C, organic solvent or mixture): < 2300 µg/mL | solubility (physchem; MTBE, 26 °C, organic solvent or mixture): < 2100 µg/mL | solubility (physchem; MeOH/DCM (1:1), 26 °C, organic solvent or mixture): > 39600 µg/mL | solubility (physchem; MeOH/DCM (1:9), 26 °C, organic solvent or mixture): > 40800 µg/mL | solubility (physchem; MeOH/DCM (1:19), 26 °C, organic solvent or mixture): > 38600 µg/mL | solubility (physchem; THF, 26 °C, organic solvent or mixture): < 1800 µg/mL | solubility (physchem; THF/H2O (19:1), 26 °C, organic solvent or mixture): > 40400 µg/mL | solubility (physchem; acetone, 26 °C, organic solvent or mixture): < 2400 µg/mL | solubility (physchem; isopropanol (IPA), 26 °C, organic solvent or mixture): < 2200 µg/mL | solubility (physchem; methanol, 26 °C, organic solvent or mixture): > 45200 µg/mL | solubility (physchem; n-heptane, 26 °C, organic solvent or mixture): < 2100 µg/mL | solubility (physchem; toluene, 26 °C, organic solvent or mixture): < 2200 µg/mL | solubility (physchem; water, 26 °C): > 43000 µg/mL | Water uptake, comparison between forms (in words) [1]: No significant difference | Water uptake (25° C./80% RH) [1]: 3.85% | Form change after DVS [1]: No | Cmax ([4]; plasma, po, capsule): 11900 ng/mL | AUC(0-t) ([4]; plasma, po, capsule): 145 µg·h/mL | Cmax ([4]; plasma, po, suspension): 73800 ng/mL | AUC(0-t) ([4]; plasma, po, suspension): 1120 µg·h/mL | Tmax ([4]; plasma, po, suspension): 2 to 4 h | Pharmacokinetic profile (in words) ([4]; suspension and capsule): excellent pharmacokinetic profiles | Mean AUClast and Cmax compared with free acid Form A suspension ([4]; suspension or capsule): greater than that of Compound I free acid Form A

CCOc1cccc(-c2nc3ncc(NS(C)(=O)=O)nc3n2-c2c(OC)cccc2OC)n1 [Compound I free acid Form A, N-(1-(2,6-dimethoxyphenyl)-2-(6-ethoxypyridin-2-yl)-1H-imidazo[4,5-b]pyrazin-6-yl)methanesulfonamide]
solubility ([5]; organic solvent or mixture, thermodynamic from solid, 1,4-dioxane): 2000 to 5000 µg/mL (≈ 4.25 to 10.6 mM) | solubility ([5]; organic solvent or mixture, thermodynamic from solid, 2-MeTHF): < 1000 µg/mL | solubility ([5]; organic solvent or mixture, thermodynamic from solid, ACN): 2000 to 5000 µg/mL (≈ 4.25 to 10.6 mM) | solubility ([5]; organic solvent or mixture, thermodynamic from solid, DCM): 5300 to 10500 µg/mL (≈ 11.3 to 22.3 mM) | solubility ([5]; organic solvent or mixture, thermodynamic from solid, EtOAc): < 1000 µg/mL | solubility ([5]; organic solvent or mixture, thermodynamic from solid, EtOH): < 1100 µg/mL | solubility ([5]; organic solvent or mixture, thermodynamic from solid, IPA): < 900 µg/mL | solubility ([5]; organic solvent or mixture, thermodynamic from solid, MTBE): < 900 µg/mL | solubility ([5]; organic solvent or mixture, thermodynamic from solid, MeOH): 1000 to 2100 µg/mL (≈ 2.13 to 4.46 mM) | solubility ([5]; organic solvent or mixture, thermodynamic from solid, THF): 9000 to 18000 µg/mL (≈ 19.1 to 38.3 mM) | solubility ([5]; organic solvent or mixture, thermodynamic from solid, acetone): 2100 to 5200 µg/mL (≈ 4.46 to 11.1 mM) | solubility ([5]; organic solvent or mixture, thermodynamic from solid, n-heptane): < 1300 µg/mL | solubility ([5]; organic solvent or mixture, thermodynamic from solid, toluene): < 800 µg/mL | solubility ([5]; water, thermodynamic from solid, H2O): < 1200 µg/mL | Solid stability: form change (XRPD) and HPLC purity [3]: no form change or obvious HPLC purity decrease | Water uptake, comparison between forms (in words) [1]: lowest water uptake | Water uptake, comparison between forms (in words) ([1]; listed as free acid Form A): lowest water uptake | Water uptake (25° C./80% RH) [1]: 0.03% | Form change after DVS [1]: No | AUC(0-t) ([4]; plasma, suspension): 13.8 µg·h/mL | Tmax ([4]; plasma, suspension): 4 h | Cmax ([4]; suspension): 983 ng/mL

CCOc1cccc(-c2nc3ncc([N-]S(C)(=O)=O)nc3n2-c2c(OC)cccc2OC)n1.[K+] [Compound I potassium salt Form A, N-(1-(2,6-dimethoxyphenyl)-2-(6-ethoxypyridin-2-yl)-1H-imidazo[4,5-b]pyrazin-6-yl)methanesulfonamide potassium salt Form A]
Water uptake, comparison between forms (in words) [1]: No significant difference | Water uptake (25° C./80% RH) [1]: 3.71% | Form change after DVS [1]: No
